For one test, the system named is TF(v-SRC) cells. Kind of test: Test B: apoptosis of TF(v-SRC) cells (acridine orange/ethidium bromide, nuclear fragmentation). The class given is cell-based. To be noted: nuclear fragmentation, FIG. 2A/B (96 h), read-out: ED50 of apoptosis induction. The procedure: (§1) FIG. 2 illustrates apoptosis induction in FFMA-AML and TF(v-SRC) cells by 3-Cl-AHPC and compound 16. Cells were seeded at 1×10^4 cells/ml, grown for 24 h and then exposed to 1 μM compound 16 or 3-Cl-AHPC A) at various concentrations of the compound for 96 h and B) for increasing times of exposure. C) Induction of apoptosis by 3-Cl-AHPC, all-trans-retinoic acid, 9-cis-retinoic acid and TTNPB in FFMA-AML and TF(v-SRC) cells. The percentage of apoptotic cells was determined using acridine orange and ethidium bromide staining to determine nuclear fragmentation as described in the general biochemical and pharmacological materials and methods. The error bars represent the mean of three separate determinations +/− the standard deviation (SD).
FFMA-AML cells were obtained from a patient with a diagnosis of AML as indicated by the immunophenotyping described in Table 1. This patient was refractory to the chemotherapy regimens consisting of cytosine arabinoside given with daunomycin as well as high-dose cytosine arabinoside. Peripheral blood samples were obtained from the patient utilizing a Wayne State University Institutional Review Board approved protocol and the leukemic blasts were isolated utilizing Ficoll hypaque. The isolated leukemic cells (representing >99% of the cells) were subsequently cultured in RPMI 1640 supplemented with 10% heat-inactivated fetal bovine serum (FBS) and growth factors interleukin 3 (IL-3), granulocyte-colony stimulating factor (G-CSF), granulocyte/macrophage colony-stimulating factor (GM-CSF), and stem cell factor (SCF) as we have previously reported, and then the cells were maintained in 10% FBS and gentamycin (Zhang Y. et al., Blood, 2003; […]:3743-3752). The TF(v-SRC) leukemia cells have been previously described (Black J. H. et al., Leukemia. 2003; 17:155-159). TF(v-SRC) cells were grown in RPMI 1640 supplemented with 10% heat inactivated FBS.
Apoptosis of cells was determined by (1) acridine orange and ethidium bromide-staining to assess cells with nuclear fragmentation and chromatin condensation as previously described (Farhana L. et al., Cancer Res. 2006; 65:4909-4917) and (2) flow cytometry assessing Annexin V-FITC binding together with propidium iodide staining (Annexin V-FITC apoptosis Detection kit 1, BD Biosciences, San Diego, Calif.). Data acquisition was done on a FACS Calibur flow cytometer (BD) and analyzed with CellQuest software.
Cells were grown in the presence and absence of increasing concentrations of either 3-Cl-AHPC or compound 16 and for varying periods of time. There was a progressive increase in 3-Cl-AHPC- and compound 16-mediated apoptosis in both FFMA-AML and TF(v-SRC) cells with time and with increasing concentrations of the compounds. […] We therefore tested the sensitivity of FFMA-AML and TF(v-SRC) cells to apoptosis induction by tRA, 9-cis RA, and TTNPB (FIG. 2C).

The test system of test [1] is COLO357 cells. The test is described as follows: Test I: growth inhibition of COLO357 cells (MTT). The class given is cell-based. To be noted: 1 μM. The procedure: (§2) Pancreatic cancer cell lines (COLO357, PANC-1, Capan-2, AsPc-1 cells and MiaPaCa-2 cells obtained from American Type Culture Collection; ATCC, Rockville, Md.) were treated with 1 μM 3-Cl-AHPC and compound 16 for various times. Apoptosis in cells were analyzed by flow cytometry using Annexin V-FITC binding together with propidium iodide (PI) staining (Annexin V-FITC apoptosis Detection Kit 1, BD Biosciences, San Diego, Calif.). Data acquisition was done on a FACS Calibur flow cytometer (BD) and analyzed with CellQuest software (BD Biosciences). 3-Cl-AHPC and compound 16 mediated inhibition of cell growth were determined by 3-(4,5-dimethylthiazol-2-yl)-2,5-diphenyltetrazolium bromide (MTT) assay. The cells were seeded on 96-well plates at a density of 4×10^4 cells/well in a volume of 200 μl culture medium. 1 μM AHP3 and 3-Cl-AHPC in DMSO (final concentration 0.1%) were added to the cells for various times. […] After discarding the medium, MTT precipitates were solubilized with 200 μl DMSO and the plates read on a BioTeK Synergy HT (BioTeK Instrument Inc., Vermont) at an absorbance 570 nm. […] The spheroids were stained with acridine orange/ethidium bromide staining and immediately visualized and photographed with fluorescence microscope (OLYMPUS CKX41). […] Then spheroids were visualized and photographed with a fluorescence microscope.

The test system of a further test is PANC-1 cells. The test is described as follows: Test I: apoptosis of PANC-1 pancreatic cancer cells (Annexin V-FITC/PI). The class given is cell-based. To be noted: 1 μM, 48 h. The procedure:
as §2

Test [2] concerns FFMA-AML cells. Kind of test: Annexin V-FITC binding by flow cytometry, FFMA-AML cells. To be noted: 1 μM, varying times. The format is cell-based, human. The procedure: FIG. 3 illustrates the induction of apoptosis and cell death as assessed using Annexin V-FITC binding together with propidium iodide (PI) staining. FFMA-AML and TF(vSRC) cells were exposed to 1 μM 3-Cl-AHPC or compound 16. A) Apoptosis in FFMA-AML and TF(vSRC) cells following 24 and 48 h ARR exposure, respectively. The plots show the distribution of classes of fluorescence intensity versus cell number. The bottom left quadrant represents live cells (both annexin V-FITC and PI negative); the bottom right quadrant represents early apoptotic cells (annexin V-FITC positive but PI negative); and the top right quadrant represents late apoptotic cells (both annexin V-FITC and PI positive). B) Percentage of early apopotic Annexin V-positive cells at the indicated times. […] (p values of <0.05, <0.01 and <0.001 respectively, as determined by the t test).
(§3) Apoptosis of cells was determined by (1) acridine orange and ethidium bromide-staining to assess cells with nuclear fragmentation and chromatin condensation as previously described (Farhana L. et al., Cancer Res. 2006; 65:4909-4917) and (2) flow cytometry assessing Annexin V-FITC binding together with propidium iodide staining (Annexin V-FITC apoptosis Detection kit 1, BD Biosciences, San Diego, Calif.). Data acquisition was done on a FACS Calibur flow cytometer (BD) and analyzed with CellQuest software. […]

Test [3] relates to FFMA-AML cells. Kind of test: Test B: apoptosis of FFMA-AML cells (acridine orange/ethidium bromide, nuclear fragmentation). The format is cell-based, human. To be noted: for EC50: Homo sapiens, nuclear fragmentation, FIG. 2A/B (96 h), read-out: ED50 of apoptosis induction. The procedure: as §1
FFMA-AML cells were obtained from a patient with a diagnosis of AML as indicated by the immunophenotyping described in Table 1. This patient was refractory to the chemotherapy regimens consisting of cytosine arabinoside given with daunomycin as well as high-dose cytosine arabinoside. Peripheral blood samples were obtained from the patient utilizing a Wayne State University Institutional Review Board approved protocol and the leukemic blasts were isolated utilizing Ficoll hypaque. […]
as §3

For test [4], the system named is COLO357 cells. Kind of test: Test I: apoptosis of COLO357 pancreatic cancer cells (Annexin V-FITC/PI). The format is cell-based. To be noted: 1 μM, 48 h. The procedure: as §2

`O=C(O)C=Cc1ccc(-c2ccc(O)c(C34CC5CC(CC(C5)C3)C4)c2)c(Cl)c1` [Compound 3-Cl-AHPC, 4-[3-(1-adamantyl)-4-hydroxyphenyl]-3-chlorocinnamic acid, reference compound]: the values for the EC50 with TF(v-SRC) cells and in the test with FFMA-AML cells [3] were 750 nM and 370 nM, respectively. Further, the inhibition of growth entry in the test on COLO357 cells [1] is recorded as “significant inhibition of growth”. For the same compound, the “cells in which induction of apoptosis was noted” value with PANC-1 cells amounted to 50%; in the test on COLO357 cells [4], 80%. Besides, the “annexin V-FITC-positive cells” value in the test with FFMA-AML cells [2] is reported as “progressive increase in annexin V-FITC-positive cells with time”. The same compound came in with a cells displaying apoptosis in the test on FFMA-AML cells [3] (FIG. 2C, retinoid values over that noted with the vehicle) of 80%.
With `O=C(O)/C=C/c1cnc(-c2ccc(O)c(C34CC5CC(CC(C5)C3)C4)c2)nc1` [Compound 16, (E)-3-[2-(3-(1-Adamantyl)-4-hydroxyphenyl)-5-pyrimidinyl]-2-propenoic acid], the EC50 is 750 nM in the test with TF(v-SRC) cells and 320 nM in the test with FFMA-AML cells [3]. In addition, the inhibition of growth entry with COLO357 cells [1] is “significant inhibition of growth”. In addition, the figures for the “cells in which induction of apoptosis was noted” value in the test with PANC-1 cells and with COLO357 cells [4] were 50% and 80%, respectively. Besides, the “annexin V-FITC-positive cells” value in the test on FFMA-AML cells [2] is “progressive increase in annexin V-FITC-positive cells with time”.

The record behind these values is patent publication US9096544B2, “Therapeutic compounds” (Wayne State University, priority 2009, dated 2015).
